In assay [1] the test system is A549. Put plainly: cells. As to conditions: Homo sapiens, A549, 72 h.
Description: Antiproliferative activity against human A549 cells after 72 hrs by CellTiter 96 aqueous one solution assay
For assay [2], the target named is T1, Tyrosine-protein kinase Fyn (Homo sapiens, UniProt P06241). Put plainly: Inhibition of Fyn A (unknown origin) at 0.5 uM preincubated for 10 mins followed by substrate addition and measured after 1 hr by ADP-Glo luminescence assay relative to control.
Target sequence in this assay (P06241 2-537 limits assumed): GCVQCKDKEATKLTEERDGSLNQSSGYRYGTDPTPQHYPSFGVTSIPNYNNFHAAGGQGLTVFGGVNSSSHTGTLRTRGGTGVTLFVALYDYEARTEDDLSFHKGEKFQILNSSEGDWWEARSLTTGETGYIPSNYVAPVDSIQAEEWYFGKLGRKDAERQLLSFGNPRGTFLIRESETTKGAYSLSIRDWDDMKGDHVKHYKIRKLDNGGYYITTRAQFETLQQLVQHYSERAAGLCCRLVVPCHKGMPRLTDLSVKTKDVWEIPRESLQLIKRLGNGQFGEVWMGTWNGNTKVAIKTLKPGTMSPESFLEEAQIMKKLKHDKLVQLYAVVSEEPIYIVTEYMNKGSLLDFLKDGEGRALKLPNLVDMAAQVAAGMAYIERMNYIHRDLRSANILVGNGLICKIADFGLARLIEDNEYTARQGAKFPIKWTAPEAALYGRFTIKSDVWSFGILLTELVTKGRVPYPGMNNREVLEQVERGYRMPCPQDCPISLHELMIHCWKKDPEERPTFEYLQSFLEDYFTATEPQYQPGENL
In assay [3] the test system is MCF7. The assay can be described thus: cells. As to conditions: Homo sapiens, MCF7, 72 h.
Description: Antiproliferative activity against human MCF7 cells after 72 hrs by CellTiter 96 aqueous one solution assay
The test system of assay [4] is NHDF. Put plainly: cells. The note with it: Homo sapiens, 72 h.
Description: Antiproliferative activity against human NHDF cells after 72 hrs by CellTiter 96 aqueous one solution assay
For assay [5], the target named is T2, Tyrosine-protein kinase BTK (Homo sapiens, UniProt Q06187). Put plainly: Inhibition of BTK (unknown origin) preincubated for 10 mins followed by substrate addition and measured after 1 hr by ADP-Glo luminescence assay. Background: ADP-Glo first removes unused ATP, then detects ADP through luciferase.
T2 sequence (Q06187 whole entry): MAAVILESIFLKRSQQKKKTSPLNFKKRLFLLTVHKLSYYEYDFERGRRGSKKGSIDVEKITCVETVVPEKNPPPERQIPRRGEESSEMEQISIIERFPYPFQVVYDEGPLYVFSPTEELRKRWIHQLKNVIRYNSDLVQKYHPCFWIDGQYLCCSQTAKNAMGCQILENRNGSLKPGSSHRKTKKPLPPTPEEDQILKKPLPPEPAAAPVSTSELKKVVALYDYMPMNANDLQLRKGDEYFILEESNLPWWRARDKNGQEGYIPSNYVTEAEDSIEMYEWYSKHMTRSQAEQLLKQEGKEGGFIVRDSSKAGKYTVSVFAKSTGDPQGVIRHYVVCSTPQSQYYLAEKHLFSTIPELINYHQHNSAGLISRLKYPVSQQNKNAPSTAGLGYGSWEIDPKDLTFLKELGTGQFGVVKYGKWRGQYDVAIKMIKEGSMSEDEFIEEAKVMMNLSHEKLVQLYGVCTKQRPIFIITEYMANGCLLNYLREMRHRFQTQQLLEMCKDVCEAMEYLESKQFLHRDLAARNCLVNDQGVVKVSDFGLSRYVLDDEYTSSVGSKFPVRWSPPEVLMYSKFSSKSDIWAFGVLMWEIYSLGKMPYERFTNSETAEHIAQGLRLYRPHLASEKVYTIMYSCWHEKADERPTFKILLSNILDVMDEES
Assay [6] has as its target T1, Tyrosine-protein kinase Fyn. Put plainly: Inhibition of Fyn A (unknown origin) preincubated for 10 mins followed by substrate addition and measured after 1 hr by ADP-Glo luminescence assay.
Target sequence in this assay (P06241 whole entry): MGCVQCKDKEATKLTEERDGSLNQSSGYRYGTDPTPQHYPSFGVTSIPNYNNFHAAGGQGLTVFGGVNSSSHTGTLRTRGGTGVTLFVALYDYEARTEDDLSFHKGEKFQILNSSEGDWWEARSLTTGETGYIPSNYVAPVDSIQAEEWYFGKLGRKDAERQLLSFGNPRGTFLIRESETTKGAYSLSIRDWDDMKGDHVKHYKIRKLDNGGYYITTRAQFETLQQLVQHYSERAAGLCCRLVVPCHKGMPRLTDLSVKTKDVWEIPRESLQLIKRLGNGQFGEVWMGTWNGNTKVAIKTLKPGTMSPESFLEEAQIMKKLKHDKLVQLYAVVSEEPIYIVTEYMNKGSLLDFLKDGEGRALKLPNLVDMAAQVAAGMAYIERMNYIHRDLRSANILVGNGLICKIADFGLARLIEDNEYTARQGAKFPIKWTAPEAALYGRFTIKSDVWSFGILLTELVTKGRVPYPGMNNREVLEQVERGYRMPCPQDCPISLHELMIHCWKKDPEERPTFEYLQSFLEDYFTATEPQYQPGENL
The test system of assay [7] is HCT-116. The assay can be described thus: cells. The note with it: Homo sapiens, HCT-116, 72 h.
Description: Antiproliferative activity against p53+/+ human HCT116 cells after 72 hrs by CellTiter 96 aqueous one solution assay
Assay [8] has as its system HCT-116. The assay can be described thus: cells. The note with it: Homo sapiens, HCT-116, 72 h. This is another data set of the same source.
Description: Antiproliferative activity against p53-/- human HCT116 cells after 72 hrs by CellTiter 96 aqueous one solution assay
Assay [9] deals with Nociceptin receptor (Homo sapiens, UniProt P41146). The assay can be described thus: Displacement of [3H]-nociceptin from human nociceptin receptor expressed in cell membranes after 60 mins by liquid scintillation counting analysis. Background: In a radioligand displacement assay an active substance lowers the binding of a labelled ligand.
Chain of Nociceptin receptor (P41146 whole entry): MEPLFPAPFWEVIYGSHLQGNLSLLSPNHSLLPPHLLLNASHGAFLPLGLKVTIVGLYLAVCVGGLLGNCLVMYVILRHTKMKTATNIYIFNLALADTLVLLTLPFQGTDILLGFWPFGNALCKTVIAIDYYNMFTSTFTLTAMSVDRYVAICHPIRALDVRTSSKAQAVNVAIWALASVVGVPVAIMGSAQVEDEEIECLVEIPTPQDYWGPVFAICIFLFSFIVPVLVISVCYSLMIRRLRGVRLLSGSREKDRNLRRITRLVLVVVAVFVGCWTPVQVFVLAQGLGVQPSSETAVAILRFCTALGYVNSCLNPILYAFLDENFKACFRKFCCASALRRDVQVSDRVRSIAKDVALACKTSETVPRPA
Assay [10] concerns the target T1, Tyrosine-protein kinase Fyn. The assay can be described thus: Inhibition of human FYN at 20 uM using poly[Glu:Tyr] (4:1) as substrate by [gamma-33P]-ATP assay relative to control.
Target sequence in this assay (P06241 2-537 limits assumed): as the sequence (P06241 2-537 limits assumed) above
Assay [11] addresses Receptor tyrosine-protein kinase erbB-4 (Homo sapiens, UniProt Q15303). Put plainly: Inhibition of human ERBB4 using poly[Glu:Tyr] (4:1) as substrate by [gamma-33P]-ATP assay.
Assay [12] concerns the target T2, Tyrosine-protein kinase BTK. Put plainly: Inhibition of human BTK using KVEKIGEGTYGVVYK as substrate by [gamma-33P]-ATP assay.
Assay [13] concerns the target Tyrosine-protein kinase ABL1 (Homo sapiens) (UniProt P00519). Put plainly: Inhibition of human ABL1 at 20 uM using EAIYAAPFAKKK as substrate by [gamma-33P]-ATP assay relative to control.
The target in assay [14] is T3, Tyrosine-protein kinase Lyn (Homo sapiens, UniProt P07948). The assay can be described thus: Inhibition of human LYN at 20 uM using poly[Glu:Tyr] (4:1) as substrate by [gamma-33P]-ATP assay relative to control.
Target sequence in this assay (P07948 2-512 limits assumed): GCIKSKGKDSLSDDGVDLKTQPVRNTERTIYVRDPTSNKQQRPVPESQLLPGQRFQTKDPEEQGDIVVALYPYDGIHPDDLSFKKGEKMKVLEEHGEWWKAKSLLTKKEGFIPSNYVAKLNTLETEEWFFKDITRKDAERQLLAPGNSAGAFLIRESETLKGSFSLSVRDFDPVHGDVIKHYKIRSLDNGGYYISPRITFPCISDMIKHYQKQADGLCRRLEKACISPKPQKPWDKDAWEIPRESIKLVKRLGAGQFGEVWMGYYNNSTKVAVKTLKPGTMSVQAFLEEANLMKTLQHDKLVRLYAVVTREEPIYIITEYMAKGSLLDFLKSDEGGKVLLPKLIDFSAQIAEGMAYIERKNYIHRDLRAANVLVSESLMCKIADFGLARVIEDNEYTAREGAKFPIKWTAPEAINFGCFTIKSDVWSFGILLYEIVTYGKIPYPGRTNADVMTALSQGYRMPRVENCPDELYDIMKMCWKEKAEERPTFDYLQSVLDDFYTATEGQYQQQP
The target of assay [15] is Tyrosine-protein kinase Lck (Homo sapiens) (UniProt P06239). Put plainly: Inhibition of human LCK at 20 uM using poly[Glu:Tyr] (4:1) as substrate by [gamma-33P]-ATP assay relative to control.
Chain of Tyrosine-protein kinase Lck (Homo sapiens) (P06239 2-509 limits assumed): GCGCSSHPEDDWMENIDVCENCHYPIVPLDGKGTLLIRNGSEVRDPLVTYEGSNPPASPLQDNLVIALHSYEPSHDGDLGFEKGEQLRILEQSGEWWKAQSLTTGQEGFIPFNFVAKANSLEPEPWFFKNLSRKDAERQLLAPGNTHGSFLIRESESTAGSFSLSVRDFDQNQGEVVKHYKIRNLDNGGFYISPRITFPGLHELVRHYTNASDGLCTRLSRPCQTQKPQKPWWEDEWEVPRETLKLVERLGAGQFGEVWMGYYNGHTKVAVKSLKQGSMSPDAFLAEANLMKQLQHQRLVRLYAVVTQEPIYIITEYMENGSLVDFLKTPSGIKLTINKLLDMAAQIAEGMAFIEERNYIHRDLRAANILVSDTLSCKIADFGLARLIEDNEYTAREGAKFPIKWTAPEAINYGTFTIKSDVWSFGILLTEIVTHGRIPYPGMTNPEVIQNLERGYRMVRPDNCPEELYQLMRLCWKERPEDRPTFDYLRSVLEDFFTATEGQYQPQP
The target of assay [16] is T3, Tyrosine-protein kinase Lyn. The assay can be described thus: Inhibition of human LYN-B using poly[Glu:Tyr] (4:1) as substrate by [gamma-33P]-ATP assay.
Target sequence in this assay (P07948 whole entry): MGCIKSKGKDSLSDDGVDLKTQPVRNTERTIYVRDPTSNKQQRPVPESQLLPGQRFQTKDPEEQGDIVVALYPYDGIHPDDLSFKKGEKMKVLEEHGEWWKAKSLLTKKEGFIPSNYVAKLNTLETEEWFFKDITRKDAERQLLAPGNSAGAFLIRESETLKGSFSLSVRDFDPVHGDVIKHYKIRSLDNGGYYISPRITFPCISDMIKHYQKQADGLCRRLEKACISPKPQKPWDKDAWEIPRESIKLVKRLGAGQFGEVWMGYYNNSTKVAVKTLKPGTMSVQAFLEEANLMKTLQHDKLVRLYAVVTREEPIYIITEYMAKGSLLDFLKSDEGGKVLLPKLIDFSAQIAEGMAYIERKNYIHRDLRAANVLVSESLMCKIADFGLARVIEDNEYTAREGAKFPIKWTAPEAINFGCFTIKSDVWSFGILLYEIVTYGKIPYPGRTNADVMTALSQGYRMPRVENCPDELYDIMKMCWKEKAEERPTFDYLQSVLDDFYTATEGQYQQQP
Assay [17] deals with Tyrosine-protein kinase CSK (Homo sapiens, UniProt P41240). The assay can be described thus: Inhibition of human CSK using poly[Glu:Tyr] (4:1) as substrate by [gamma-33P]-ATP assay.
The target of assay [18] is Calcium/calmodulin-dependent protein kinase type 1G (Homo sapiens, UniProt Q96NX5). The assay can be described thus: Inhibition of human CAMK1G using KKALRRQETVDAL as substrate by [gamma-33P]-ATP assay.

A word on the IC50: it is the point on the concentration scale where inhibition reaches its midpoint. As a reminder, the inhibition is how much of the control response was suppressed. The term Ki denotes the dissociation constant of the complex between target and ligand, obtained from inhibition or displacement.

Chain of Tyrosine-protein kinase ABL1 (Homo sapiens) (P00519 whole entry): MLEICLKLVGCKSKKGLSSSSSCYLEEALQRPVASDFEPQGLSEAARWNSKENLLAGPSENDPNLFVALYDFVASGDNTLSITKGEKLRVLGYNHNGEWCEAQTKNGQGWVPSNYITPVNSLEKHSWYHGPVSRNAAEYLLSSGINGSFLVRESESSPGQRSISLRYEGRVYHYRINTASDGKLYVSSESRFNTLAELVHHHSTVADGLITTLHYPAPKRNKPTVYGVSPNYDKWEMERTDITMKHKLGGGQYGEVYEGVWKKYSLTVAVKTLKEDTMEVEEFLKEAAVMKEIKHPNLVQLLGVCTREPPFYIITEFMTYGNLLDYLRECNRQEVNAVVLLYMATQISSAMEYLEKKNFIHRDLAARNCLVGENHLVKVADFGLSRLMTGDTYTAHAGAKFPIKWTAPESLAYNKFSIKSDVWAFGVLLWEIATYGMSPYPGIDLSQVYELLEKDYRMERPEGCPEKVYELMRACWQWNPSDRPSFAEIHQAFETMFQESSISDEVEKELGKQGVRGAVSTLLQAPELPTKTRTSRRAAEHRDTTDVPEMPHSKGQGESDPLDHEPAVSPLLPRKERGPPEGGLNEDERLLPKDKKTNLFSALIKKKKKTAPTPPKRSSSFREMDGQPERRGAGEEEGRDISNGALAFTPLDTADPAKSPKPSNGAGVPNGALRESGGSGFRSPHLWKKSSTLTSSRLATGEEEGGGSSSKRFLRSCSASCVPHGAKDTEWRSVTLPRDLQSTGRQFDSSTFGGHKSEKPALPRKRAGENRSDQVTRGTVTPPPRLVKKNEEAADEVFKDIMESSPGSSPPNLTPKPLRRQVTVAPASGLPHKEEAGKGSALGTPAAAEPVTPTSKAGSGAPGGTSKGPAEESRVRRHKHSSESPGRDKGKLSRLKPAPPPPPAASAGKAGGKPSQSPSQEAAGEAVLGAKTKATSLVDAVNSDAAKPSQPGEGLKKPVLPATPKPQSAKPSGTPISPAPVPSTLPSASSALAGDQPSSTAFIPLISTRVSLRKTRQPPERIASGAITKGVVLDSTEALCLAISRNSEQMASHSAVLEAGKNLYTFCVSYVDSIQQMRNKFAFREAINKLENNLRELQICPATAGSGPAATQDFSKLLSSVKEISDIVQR

In the case of `COc1ccccc1/C=C/c1nc(Nc2ccc3c(c2)OCO3)c2ccccc2n1`, the IC50 in assay [1] was 9.88 µM; in [3], 4.86 µM; in [4] it was 7.72 µM; in [5], 0.237 µM; in assay [6], 0.191 µM; in assay [7] it was 15.9 µM. In [8], the IC50 was determined as 13.7 µM. In assay [2], this compound had an inhibition of 90%.
In turn, `Cc1ccc2nc(/C=C/c3ccccn3)nc(N[C@H]3CC[C@@H](N)C[C@H]3C)c2c1` showed a Ki in assay [9] of 0.002 µM.
Consider `CCN(CC)CCCC(C)Nc1nc(/C=C/c2cc(OC)c(OC)cc2Cl)nc2cc(Cl)ccc12` (stereo not drawn), for which the inhibition in [10] is 70%; in [13], 0%; in assay [14] it was 50%; in assay [15], 80%. The IC50 in assay [11] is 7.74 µM; in assay [12] it was 5.15 µM; in [16], above 100 µM; in [17], 6.85 µM; in assay [18] it was 4.81 µM.
